Test results: patent publication US20090030068A1, “Antitumour Compounds” (PHARMA MAR, S.A., priority 2005, published 2009)
In brackets after ≈: the same amount, converted by molar mass.

What was measured:
[1] = system: P388 cancer cells; settings: cited from earlier work
[2] = system: L1210 cells; settings: cited from earlier work
[3] = system: A549 cancer cells; settings: cited from earlier work
[4] = system: MDA-MB-231 cancer cells; settings: cited from earlier work
[5] = system: P388 leukemia; settings: cited from earlier work; for antitumor activity / toxicity: P388 leukemia in CDF1 mice
[6] = system: HCT-8 cancer cells; settings: cited from earlier work
[7] = system: KB cells; settings: cited from earlier work
[8] = system: A549; assay: SRB colorimetric cell growth inhibition assay, A549; assay type: cell-based
Method: (§1) The assays of antitumor activity allow detecting extracts or compounds with cytotoxic activity (cell death) or cytostatic activity (growth inhibition) in in vitro cultures of tumor cells of human origin.
(§2) The quantification of cell growth in vitro was carried out by means of a calorimetric assay with sulforhodamine B (SRB) (following an adaptation of the previously described method by Philip Skehan et al. 1990, J. Natl. Cancer Inst., 82:1107-1112).
(§3) This type of assay uses 96-well culture microplates, (Mosmann, 1983, Faircloth, 1988). Most of the cell lines used are obtained from the American Type Culture Collection (ATCC) and derived from different types of human tumors.
(§4) The cell cultures are maintained in DMEM culture medium (supplemented with 10% fetal bovine serum (FBS), 1% penicillin/streptomycin 1% glutamine) at 37° C., 5% CO2 and 98% humidity.
(§5) For the assays, the cells are trypsinized and seeded in 96-well microplates at different concentrations depending on the cell line, and are incubated for 24 hours in an active ingredient-free medium for their stabilization. The cultures are then treated (final concentration varies depending on the type of assay) with carrier (DMSO:DMEM, 1:1) or active ingredient. After 48 hours of exposure to the active ingredient, the antitumor effect is measured by means of the previously mentioned SRB method, which basically consists of: fixing the cells with a 1% glutaraldehyde solution (30 min, RT), washing of the fixer in PBS (3 washings, RT), staining the cultures with a 0.4% SRB solution (30 min, RT), washing of the colorant in 1% acetic acid solution (3 washings, RT), air-drying the plates and final extraction of the colorant with Tris buffer. The quantification of the assay is carried out by means of optical density reading of the plates in a spectrophotometric microplate reader at a single wavelength of 490 nm. […]

[9] = system: MDA-MB-231; assay: SRB colorimetric cell growth inhibition assay, MDA-MB-231; assay type: cell-based
Method: as §1, §2, §3, §4, §5

[10] = system: HT29; assay: SRB colorimetric cell growth inhibition assay, HT29; assay type: cell-based
Method: as §1, §2, §3, §4, §5

CO[C@H]1C[C@H](CC[C@H](C)[C@H](O)[C@H](C)[C@H]2OC(=O)/C(C)=C/C[C@H](O)C[C@@H]3C=CC[C@@H](C[C@H](OC)[C@@H](C)[C@@H](O)C[C@@H](O)[C@H](C)[C@@H]([C@@H](C)[C@@H](O)[C@@H](C)CC[C@H]4C[C@H](OC)C[C@H](C)O4)OC(=O)/C(C)=C/C[C@H](O)C[C@@H]4C=CC[C@@H](C[C@H](OC)[C@@H](C)[C@@H](O)C[C@@H](O)[C@@H]2C)O4)O3)O[C@@H](C)C1 [Misakinolide A]
in vitro antitumor activity [1]: in vitro antitumor activity
IC50 (cytotoxicity) [2]: 0.035 µg/mL (≈ 0.0262 µM)
in vitro antitumor activity [3]: in vitro antitumor activity
in vitro antitumor activity [4]: in vitro antitumor activity
T/C ([5]; dose of 0.1 mg/kg (mouse), P388 leukemia): 140%
in vitro antitumor activity [6]: in vitro antitumor activity

COC1CC(C)OC(CCC(C)C(O)C(C)C2OC(=O)/C=C\C(C)=C\CC(O)CC3C=CCC(CC(OC)C(C)C(O)CC(O)C(C)C(C(C)C(O)C(C)CCC4CC(O)CC(C)O4)OC(=O)/C=C\C(C)=C\CC(O)CC4C=CCC(CC(OC)C(C)C(O)CC(O)C2C)O4)O3)C1 (stereo not shown) [Swinholide C]
IC50 (cytotoxicity) [2]: 0.14 µg/mL (≈ 0.102 µM)
IC50 (cytotoxicity) [7]: 0.05 µg/mL (≈ 0.0363 µM)

CO[C@H]1C[C@H](CC[C@H](C)[C@H](O)[C@H](C)[C@H]2OC(=O)/C=C/C(C)=C/C[C@H](O)C[C@@H]3C=CC[C@@H](C[C@H](OC)[C@@H](C)[C@@H](O)C[C@@H](O)[C@H](C)[C@@H]([C@@H](C)[C@@H](O)[C@@H](C)CC[C@H]4C[C@H](OC)C[C@H](C)O4)OC(=O)/C=C/C(C)=C/C[C@H](O)C[C@@H]4C=CC[C@@H](C[C@H](OC)[C@@H](C)[C@@H](O)C[C@@H](O)[C@@H]2C)O4)O3)O[C@@H](C)C1 [Swinholide A]
IC50 (cytotoxicity) [2]: 0.03 µg/mL (≈ 0.0216 µM)
antitumor activity [5]: did not show promising antitumor activity
toxicity [5]: toxic
IC50 (cytotoxicity) [7]: 0.04 µg/mL (≈ 0.0288 µM)

COC1CC(C)OC(CCC(C)C(O)C(C)C2OC(=O)/C=C/C(C)=C/CC(O)CC3C=CCC(CC(OC)C(C)C(O)CC(O)C(C)C(C(C)C(O)C(C)CCC4CC(OC)CC(C)O4)OC(=O)/C(C)=C/CC(O)CC4C=CCC(CC(OC)C(C)C(O)CC(O)C2C)O4)O3)C1 (stereo not shown) [Compound A]
CC50 ([8]; Homo sapiens, A549, 48 h, read-out: LC50): 529 nM
GI50 ([8]; Homo sapiens, NSCL (Lung) A549, 48 hours of exposure, concentration causing 50% growth inhibition): 228 nM
TGI ([8]; NSCL (Lung) A549, 48 hours of exposure, concentration causing total growth inhibition): 3.38E−7 Molar
TGI ([9]; Breast MDA-MB-231, 48 hours of exposure, concentration causing total growth inhibition): 2.35E−6 Molar
CC50 ([9]; Homo sapiens, MDA-MB-231, 48 h, read-out: LC50): 4770 nM
GI50 ([9]; Homo sapiens, Breast MDA-MB-231, 48 hours of exposure, concentration causing 50% growth inhibition): 808 nM
TGI ([10]; Colon HT29, 48 hours of exposure, concentration causing total growth inhibition): 8.81E−7 Molar
LC50 (concentration killing 50% of cells) ([10]; Homo sapiens, HT-29, 48 h, read-out: LC50): 2200 nM
GI50 ([10]; Homo sapiens, HT-29, Colon HT29, 48 hours of exposure, concentration causing 50% growth inhibition): 338 nM

isoswinholide A
IC50 (cytotoxicity) [2]: 1.35 µg/mL
antitumor activity [5]: did not show promising antitumor activity
toxicity [5]: toxic
IC50 (cytotoxicity) [7]: 1.1 µg/mL
